In US9238034B2, “FN14 antagonists and therapeutic uses thereof” (THE TRANSLATIONAL GENOMICS RESEARCH INSTITUTE, priority 2013, dated 2016):
Where two headings read alike, the source gives them in different places.

Biological target: T1, Fn14-TWEAK binding (Homo sapiens, UniProt Q9NP84)
T1 construct: the human Fc fragment-tagged Fn14 extracellular domain (R&D Systems) was captured; purchased R&D Systems (Fn14-Fc); Peprotech (recombinant TWEAK)
T1 sequence (Q9NP84 28-80 limits assumed): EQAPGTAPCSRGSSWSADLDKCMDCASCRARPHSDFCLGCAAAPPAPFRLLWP
Assay: Double sandwich ELISA small molecule screening of TWEAK binding to captured Fn14-Fc
Experimental: Double Sandwich ELISA. sTWEAK and sTWEAK variant proteins were synthesized as described above. The expression level of each IVTT synthesized sTWEAK protein was analyzed by western blot analysis and used in approximately equal amounts in the ELISA. To assay the binding of wild type sTWEAK and sTWEAK variants to Fn14, the human Fc fragment-tagged Fn14 extracellular domain (R&D Systems) was captured in an Immuno 96-microwell white plate by adding 100 μL of 0.025 μg/mL Fn14-Fc to wells coated with goat anti-human Fcγ fragment specific monoclonal antibody. After capture, the wells were washed 3× with Dulbecco's Phosphate Buffered Saline (DPBS) containing 0.05% Tween-20. Unbound sites were blocked by addition of 100 μL of blocking solution containing 0.05% Tween-20, 1% BSA, and 3% normal goat serum (NGS) in DPBS for 1 hr at room temperature. 0.01 μL of sTWEAK or sTWEAK variant made with the human IVTT kit or 2 μL of sTWEAK or sTWEAK variant made with the rabbit IVTT kit was diluted in 100 μL of sample diluent (DPBS+1% BSA+0.005% Tween-20) and then added to the wells for 2 hr followed by addition of 100 μL of 50 ng/mL biotinylated TWEAK detection antibody (R&D Systems) in sample diluent. Following incubation for additional 2 hr at room temperature, wells were washed 3× with DPBS containing 0.05% Tween-20 and bound biotinylated TWEAK antibody was detected by incubation with an HRP-conjugated streptavidin. The total luminescent signal was obtained using Femto ELISA kit (Pierce Biochemical) and compared to the standard curve signal obtained from the binding of 0-4000 pg/mL recombinant TWEAK (Peprotech inc) to Fn14-Fc. Using 5-parameter logistic curve fitting for standard curve analysis (Sigmaplot 11.0, SyStat Software Inc.), binding of sTWEAK or TWEAK variant to Fn14-Fc was determined. The data represents that observed for at least four replicate assays.
The small molecule screening was performed using the ELISA assay described above with minor modifications. Briefly, after capturing Fn14-Fc in the microwell plate, 80 μl of drug solution in sample diluent was added to desired wells and incubated for 2 hrs at room temperature. Subsequently, 20 μL of 2500 pg/mL (5×) TWEAK was added to each well to achieve final TWEAK concentration of 500 pg/mL and incubated for additional 2 hr at room temperature. Bound TWEAK was detected as described in the protocol above. All small molecule inhibitors were screened at 25 μM final concentration (final DMSO concentration of 0.125%) in duplicate. Cyclohexamide, a non-specific small molecule, at 25 μM concentration was used as negative control. The anti-Fn14 antibody ITEM-4, added at 2.5 μg/mL, was used as a positive control for complete blockade of TWEAK binding. Reduction in TWEAK binding due to compound addition or controls was calculated by using standard curve (Separate standard curve was obtained for every screening plate).

[1] = Table 5, 25 μM, average of duplicate, read-out: % Reduction in TWEAK Binding, Average
[2] = Table 5, 25 μM, replicate 1, read-out: % Reduction in TWEAK Binding, Data 1
[3] = Table 5, 25 μM, replicate 2, read-out: % Reduction in TWEAK Binding, Data 2
[4] = Table 4, second screening iteration, 25 μM, average of duplicate, read-out: % Reduction in TWEAK Binding, Average
[5] = Table 4, second screening iteration, 25 μM, replicate 1, read-out: % Reduction in TWEAK Binding, Data 1
[6] = Table 4, second screening iteration, 25 μM, replicate 2, read-out: % Reduction in TWEAK Binding, Data 2
[7] = second screening iteration, 25 μM, average, read-out: inhibition of TWEAK binding to Fn14

Row | SMILES | inhibition at 25 µM [1] [%] | inhibition at 25 µM [2] [%] | inhibition at 25 µM [3] [%] | inhibition at 25 µM [4] [%] | inhibition at 25 µM [5] [%] | inhibition at 25 µM [6] [%] | inhibition at 25 µM [7] [%] | % Reduction in TWEAK Binding, Average (Table 4, second screening iteration, 25 μM, average of duplicate) [%] | % Reduction in TWEAK Binding, Data 2 (Table 4, second screening iteration, 25 μM, replicate 2) [%]
1 | CCS(=O)(=O)c1ccc(OCc2cc(=O)n3oc(C)cc3n2)c(NC(=O)COc2ccccc2C)c1 | 19.6 | 22.2 | 17.1 |  |  |  |  |  | 
2 | O=C(c1csc(S(=O)(=O)NCc2ccccn2)c1)N1CCCCCC1 | 12 | 15.3 | 8.76 |  |  |  |  |  | 
3 | O=C(NCc1ccc(F)cc1)C1CCCN(c2nc3c(-c4ccccc4)csc3c(=O)[nH]2)C1 (stereo not shown) | 22 | 28.1 | 15.9 |  |  |  |  |  | 
4 | O=C(NCc1ccncc1)C1CCCN(c2nc3c(-c4ccccc4)csc3c(=O)[nH]2)C1 (stereo not shown) | 14.3 | 13.4 | 15.2 |  |  |  |  |  | 
5 | Cc1cc(NC(=O)CSc2ccccc2)ccc1Cl [Compound 1068-0114] | 13.4 | 21.9 | 4.93 | 13.4 | 21.9 | 4.93 |  |  | 
6 | COc1ccc(-c2nnc(SCC(=O)Nc3ccccc3OC)nc2-c2ccc(OC)cc2)cc1 [Compound 3809-1067] | 32.1 | 34.5 | 29.8 | 32.1 | 34.5 | 29.8 | 32.1 |  | 
7 | O=C(CSc1cccc2cccnc12)Nc1ccc2ccccc2c1 [Compound 4084-0026] | 11.1 | 15.3 | 6.85 | 11.1 | 15.3 | 6.85 |  |  | 
8 | CCC(=O)Nc1ccccc1-c1ccccc1NC(=O)CC [Compound 4478-7056] | 16.5 | 15 | 18 | 16.5 | 15 | 18 |  |  | 
9 | O=C(CSc1nnc(-c2ccccc2)c(-c2ccccc2)n1)Nc1ccc(S(=O)(=O)Nc2nccs2)cc1 [Compound 4981-0539] | 11.7 | 11.3 | 12.2 | 11.7 | 11.3 | 12.2 |  |  | 
10 | CCCSc1nnc(-c2ccccc2NC(=O)CC)c(O)n1 [Compound 5511-0142] | 10.5 | 7.2 | 13.8 | 10.5 | 7.2 | 13.8 |  |  | 
11 | C=CCSc1nnc(-c2ccccc2NC(=O)CC)c(O)n1 [Compound 6969-1085] | 16.8 | 15.5 | 18 | 16.8 | 15.5 | 18 |  |  | 
12 | CCCC(=O)Nc1ccccc1-c1nnc(SC)nc1O [Compound 7033-0155] | 20.2 | 19.5 | 20.9 | 20.2 | 19.5 | 20.9 |  |  | 
13 | COc1ccc(-c2nnc(SCC(=O)Nc3cccc4ccccc34)nc2-c2ccccc2)cc1 [Compound 8014-3315] | 15.7 | 18.6 | 12.7 | 15.7 | 18.6 | 12.7 |  |  | 
14 | Cc1cccc(-n2c(=O)c3[nH]c4ccccc4sc=3c2=O)c1 [Compound 8211-0292] | 36.7 | 35.6 | 37.8 | 36.7 | 35.6 | 37.8 | 36.7 |  | 
15 | Nc1ccccc1SCC(=O)Nc1cccc2nsnc12 [Compound 8415-09495] | 19.5 | 17.8 | 21.2 | 19.5 | 17.8 | 21.2 |  |  | 
16 | Cc1cccc(NC(=O)CS(=O)(=O)c2ccccc2)c1 [Compound C200-5958] |  |  |  |  |  |  |  | −5.743 | −5.743
